pIC50, pKi: −log10 of the molar value. “And” between values parts separate entries of the source, which are not always exact repeats. Equal entries are not always repeated. “Also recorded” adds a separate entry of the source. Where two headings read alike, the source gives them in different places. Positions of bridges follow the written chain, without caps; N, C: chain ends. Residues, ends and D or L forms follow the SMILES beside them. *: point of attachment. Stearoyl = CCCCCCCCCCCCCCCCCC(=O)*; Octanoyl = CCCCCCCC(=O)*
Tests used:
[1] = test system: Calu-6 lung cancer cell line; conditions: for pIC50: 2 h; for % cell death Calu 6: 72-hour treatment, inactive indicates no growth inhibition at a concentration of 100 µM
MCF-7 breast cancer line [2] = conditions: 2 h
[3] = test system: K562 myelogenous leukemia cell line; conditions: for % cell death K562: 72-hour treatment
recombinant LSD1/CoREST = recombinant LSD1/CoREST (Homo sapiens, UniProt O60341); assay: In vitro LSD1 demethylation assay; assay type: biochemical; conditions: Table 3, truncated peptides; inhibitor 500 nM; 0.5 µM
[4] = test system: Calu-6 lung cancer cell line; assay: cells; conditions: Homo sapiens, Calu-6, 72 h, 72-hour treatment
MCF-7 breast cancer line [5] = assay: cells; conditions: Homo sapiens, MCF7, 72 h, 72-hour treatment
LSD1 bound to CoREST = conditions: read-out: Ki, LSD1 bound to CoREST; cited from earlier work
recombinant LSD1 = conditions: cited from earlier work
[6] = test system: Calu-6 lung cancer cell line; conditions: read-out: IC50 (Calu-6); cited from earlier work
MCF-7 breast cancer line [7] = conditions: read-out: IC50 (MCF7); cited from earlier work
[8] = test system: H3K4me2 at the promoter of the IGFBP2 gene in NCI-H526 cells; assay: ChIP-qPCR of H3K4me2 at IGFBP2 promoter; assay type: cell-based; conditions: 100 µM, 48 h
[9] = test system: H3K4me2 at the promoter of the FEZ1 gene in NCI-H526 cells; assay: ChIP-qPCR of H3K4me2 at FEZ1 promoter; assay type: cell-based; conditions: 100 µM, 48 h
[10] = test system: global H3K4me2 in K562 leukemia cells; assay: Western blot of global H3K4me2, K562
[11] = test system: global H3K4me2 in Calu6 lung adenocarcinoma cells; assay: Western blot of global H3K4me2, Calu6; conditions: 10 µM, 48-hour exposure

Compound: CCCCCCCCCCCCCCCCCC(=O)NCCCC[C@H](NC(=O)[C@H](C)NC(=O)[C@H](CC(C)C)NC(=O)[C@H](CCC(N)=O)NC(=O)[C@H](CCCCN)NC(=O)[C@H](CCCNC(=N)N)NC(=O)[C@@H]1CCCN1C(=O)[C@H](C)NC(=O)[C@H](CCCCN)NC(=O)CNC(=O)CNC(=O)[C@@H](NC(=O)[C@@H]1CCC(=O)NCCCC[C@H](NC(=O)[C@H](CCSC)NC(=O)[C@@H](NC(=O)[C@H](CCCNC(=N)N)NC(=O)[C@H](C)N)[C@@H](C)O)C(=O)N[C@@H]([C@@H](C)O)C(=O)N[C@@H](C)C(=O)N[C@@H](CCCNC(=N)N)C(=O)N[C@@H](CCCCN)C(=O)N1)[C@@H](C)O)C(N)=O [Compound 25]
- pIC50 [1]: > 4.96
- pIC50 (MCF-7 breast cancer line [2]): > 5.30

Compound: H-ARAM c[K^5TARK^9E^10]TG-NH2 [Compound 23]
- % cell death K562 ([3]; 1.0 µM): 90 ± 9.4%
- % cell death K562 ([3]; 100 µM): 18 ± 3.7%
- % inhibition of LSD1 at 500 nM (recombinant LSD1/CoREST): 67.3% and 67.31 ± 5.81%
- % cell death Calu 6 [1]: inactive

Compound: H-ARAM c[K^5TARK^9E^10] -NH2 [Compound 24]
- % inhibition of LSD1 at 500 nM (recombinant LSD1/CoREST): 59.8% and 59.78 ± 5.71%
- % cell death Calu 6 [1]: inactive

Compound: N=C(NCCCNCCCCCCCNCCCNC(=N)NC(=N)NCCC(c1ccccc1)c1ccccc1)NC(=N)NCCC(c1ccccc1)c1ccccc1 [Compound 3, verlindamycin]
- pIC50 ([4]; read-out: IC50 (Calu-6), Table 2): 5.20
- pIC50 ([4]; read-out: IC50 (Calu-6), Table 6): 5.80
- pIC50 (MCF-7 breast cancer line [5]; read-out: IC50 (MCF7), Table 2): 5.29
- pIC50 (MCF-7 breast cancer line [5]; read-out: IC50 (MCF7), Table 6): 5.60

Compound: H-ARAM c[K^5TARK^9E^10]TGG-K^14APRK-NH2 [Compound 21]
- % cell death K562 ([3]; 1.0 µM): 59 ± 8.1%
- % cell death K562 ([3]; 100 µM): 9.5 ± 6.7%

Compound: CCCCCCCCCCCCCCCCCC(=O)NCCCC[C@H](NC(=O)[C@H](C)NC(=O)[C@H](CC(C)C)NC(=O)[C@H](CCC(N)=O)NC(=O)[C@H](CCCCN)NC(=O)[C@H](CCCNC(=N)N)NC(=O)[C@@H]1CCCN1C(=O)[C@H](C)NC(=O)[C@H](CCCCN)NC(=O)CNC(=O)CNC(=O)[C@@H](NC(=O)[C@@H]1CCC(=O)NCCCC[C@H](NC(=O)[C@H](CCSC)NC(=O)[C@H](C)NC(=O)[C@H](CCCNC(=N)N)NC(=O)[C@H](C)N)C(=O)N[C@@H]([C@@H](C)O)C(=O)N[C@@H](C)C(=O)N[C@@H](CCCNC(=N)N)C(=O)N[C@@H](CCCCN)C(=O)N1)[C@@H](C)O)C(N)=O [Compound 26] (H-ARAMKTARKETGGKAPRKQLAK(Stearoyl)-NH2; lactam 5-10)
- pIC50 [1]: > 4.96
- pIC50 (MCF-7 breast cancer line [2]): > 5.30

Compound: H-ARAM c[K^5TARK^9E^10]TGG-K^14A-NH2 [Compound 22]
- % cell death K562 ([3]; 1.0 µM): 53 ± 11.3%
- % cell death K562 ([3]; 100 µM): 11 ± 3.2%
- % inhibition of LSD1 at 500 nM (recombinant LSD1/CoREST): 73.4% and 73.43 ± 3.75%
- % cell death Calu 6 [1]: inactive

Compound: H-ARTMK^5TARKS^10TGGKAPRKQLA-OH [Compound 8]
- pKi (LSD1 bound to CoREST): 7.30
- pIC50 (recombinant LSD1; read-out: IC50 (LSD1)): 7.29
- pKi (recombinant LSD1; read-out: Ki (LSD1)): 7.40

Compound: H-ARTM-c[K^5TARK^9E^10]TGGK^14APRKQLA-NH2 [Compound 9]
- pIC50 [6]: 3.80
- pIC50 (MCF-7 breast cancer line [7]): 3.82

Compound: Cl.Cl.c1ccc([C@@H]2C[C@H]2NC2CCNCC2)cc1 [GSK-LSD1, reference compound]
- H3K4me2 levels at the IGFBP2 promoter [8]: increases H3K4me2 marks; also recorded: somewhat less effective
- H3K4me2 levels at the FEZ1 promoter [9]: increases H3K4me2 marks; also recorded: somewhat less effective

Compound: CCCCCCCC(=O)NCCCC[C@H](NC(=O)[C@H](C)NC(=O)[C@H](CC(C)C)NC(=O)[C@H](CCC(N)=O)NC(=O)[C@H](CCCCN)NC(=O)[C@H](CCCNC(=N)N)NC(=O)[C@@H]1CCCN1C(=O)[C@H](C)NC(=O)[C@H](CCCCN)NC(=O)CNC(=O)CNC(=O)[C@@H](NC(=O)[C@@H]1CCC(=O)NCCCC[C@H](NC(=O)[C@H](CCSC)NC(=O)[C@@H](NC(=O)[C@H](CCCNC(=N)N)NC(=O)[C@H](C)N)[C@@H](C)O)C(=O)N[C@@H]([C@@H](C)O)C(=O)N[C@@H](C)C(=O)N[C@@H](CCCNC(=N)N)C(=O)N[C@@H](CCCCN)C(=O)N1)[C@@H](C)O)C(N)=O [Compound 27]
- H3K4me2 levels at the IGFBP2 promoter [8]: increases H3K4me2 marks
- increase in global H3K4me2 compared to control ([10]; 10 µM, 48-hour exposure, normalized to GAPDH): 17.6 fold
- pIC50 [1]: 4.03
- change in global H3K4 methylation compared to control [11]: did not induce any changes
- H3K4me2 levels at the FEZ1 promoter [9]: increases H3K4me2 marks
- pIC50 (MCF-7 breast cancer line [2]): 4.44

Compound: CCCCCCCC(=O)NCCCC[C@H](NC(=O)[C@H](C)NC(=O)[C@H](CC(C)C)NC(=O)[C@H](CCC(N)=O)NC(=O)[C@H](CCCCN)NC(=O)[C@H](CCCNC(=N)N)NC(=O)[C@@H]1CCCN1C(=O)[C@H](C)NC(=O)[C@H](CCCCN)NC(=O)CNC(=O)CNC(=O)[C@@H](NC(=O)[C@@H]1CCC(=O)NCCCC[C@H](NC(=O)[C@H](CCSC)NC(=O)[C@H](C)NC(=O)[C@H](CCCNC(=N)N)NC(=O)[C@H](C)N)C(=O)N[C@@H]([C@@H](C)O)C(=O)N[C@@H](C)C(=O)N[C@@H](CCCNC(=N)N)C(=O)N[C@@H](CCCCN)C(=O)N1)[C@@H](C)O)C(N)=O [Compound 28] (H-ARAMKTARKETGGKAPRKQLAK(Octanoyl)-NH2; lactam 5-10)
- pIC50 ([3]; 2 h): 4.02
- H3K4me2 levels at the IGFBP2 promoter [8]: greatest increase; also recorded: increases H3K4me2 marks
- dose dependence of H3K4 methylation ([10]; 0.1 µM and 1.0 µM, 48 h, preliminary study): modest dose dependent increase
- pIC50 [1]: 4.40
- change in global H3K4 methylation compared to control [11]: did not induce any changes
- H3K4me2 levels at the FEZ1 promoter [9]: greatest increase; also recorded: increases H3K4me2 marks
- pIC50 (MCF-7 breast cancer line [2]): 4.55
